The structures appear in SMILES notation. pIC50: −log10 of the molar value. “And” between values parts separate entries of the source, which are not always exact repeats. Equal entries are not always repeated.

For orientation: pIC50 means the IC50 on a negative log10 scale, so that one unit is a factor of ten. Broadly, the viability, T/C is the ratio of treated to control.

The test relates to 521955-158-R2-J5-PDC complex spheroid viability. In words: Anticancer human tumor 521955-158-R2-J5-PDC patient-derived pancreatic carcinoma cell line growth inhibition. Particulars: for viability, T/C: stronger effect = lower value. Put shortly:
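Multicellular complex spheroids of tumor cells with human endothelial cells (HUVEC) and mesenchymal stem cells; the LSD1 inhibitor iadademstat was combined with standard-of-care or investigational agents. Top concentration at or near clinical Cmax, half-log dilutions; final DMSO ≤0.25%.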

Setting [1] is: curve of first compound, second compound 0.1 µM.
Setting [2] is: curve of first compound, second compound 0.316 µM.
The mark [3] stands for this setting: curve of first compound, second compound 1 µM.
Setting [4] is: curve of first compound, second compound 3.16 µM.
Setting [5] is: curve of first compound, second compound 10 µM.
The mark [6] stands for this setting: second compound 0.1 µM, first compound 0.0316 µM.
Where [7] appears, read: second compound 0.1 µM, first compound 0.1 µM.
The mark [8] stands for this setting: second compound 0.316 µM, first compound 0.0316 µM.
The mark [9] stands for this setting: second compound 0.316 µM, first compound 0.1 µM.
Setting [10] is: second compound 1 µM, first compound 0.0316 µM.
Where [11] appears, read: second compound 1 µM, first compound 0.1 µM.
Setting [12] is: second compound 3.16 µM, first compound 0.0316 µM.
Where [13] appears, read: second compound 3.16 µM, first compound 0.1 µM.
Where [14] appears, read: second compound 10 µM, first compound 0.0316 µM.
Where [15] appears, read: second compound 10 µM, first compound 0.1 µM.
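Further: spheroids exposed to agents for seven days.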
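Wherever viability, T/C is given: percent of DMSO vehicle control luminescence viability.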

Take `CC1COCCN1c1cc(C2(S(C)(=N)=O)CC2)nc(-c2ccnc3[nH]ccc23)n1` (stereo not given) + NC1CCC(NC2CC2c2ccccc2)CC1: the negative-log IC50 (pIC50) reads like this: under setting [1], 6.28; under setting [2], 6.30; under setting [3], 6.27; under setting [4], 6.30; under setting [5], 6.35. Further, the viability, T/C reads like this: under setting [6], 104%; under setting [7], 87.7%; (second compound 0.1 µM, first compound 0.316 µM) 76.6%; (second compound 0.1 µM, first compound 1 µM) 16.5%; (second compound 0.1 µM, first compound 3.16 µM) 12.6%; (second compound 0.1 µM, first compound 10 µM) 16.9%. The viability, T/C is, setting by setting: under setting [8], 88.7%; under setting [9], 82.8%; (second compound 0.316 µM, first compound 0.316 µM) 71%; (second compound 0.316 µM, first compound 1 µM) 19.3%; (second compound 0.316 µM, first compound 3.16 µM) 13.2%; (second compound 0.316 µM, first compound 10 µM) 16.1%. The viability, T/C is 79.7% under setting [10]; 90.3% under setting [11]; 74.7% (second compound 1 µM, first compound 0.316 µM); 19.8% (second compound 1 µM, first compound 1 µM); 12.3% (second compound 1 µM, first compound 3.16 µM); 15.3% (second compound 1 µM, first compound 10 µM). In addition, the viability, T/C is, setting by setting: under setting [12], 97.6%; under setting [13], 93.9%; (second compound 3.16 µM, first compound 0.316 µM) 71.5%; (second compound 3.16 µM, first compound 1 µM) 17.6%; (second compound 3.16 µM, first compound 3.16 µM) 11.3%; (second compound 3.16 µM, first compound 10 µM) 14.8%. For the same molecule, the viability, T/C was 85% under setting [14]; 81.6% under setting [15]; 64.4% (second compound 10 µM, first compound 0.316 µM); 16.2% (second compound 10 µM, first compound 1 µM); 12.3% (second compound 10 µM, first compound 3.16 µM); 16.7% (second compound 10 µM, first compound 10 µM).
For `NS(=O)(=O)OCC1CC(n2ccc3c(NC4CCc5ccccc54)ncnc32)CC1O` (stereo not given) + NC1CC1c1ccc(-c2cccc(O)c2)cc1, the negative-log IC50 (pIC50) was 7.18 under setting [1]; 7.20 under setting [2]; 7.28 under setting [3]; 7.27 under setting [4]; 7.39 under setting [5]. The viability, T/C was 96.4% (second compound 0.1 µM, first compound 0.00949 µM); 72.8% (second compound 0.1 µM, first compound 0.03 µM); 38.5% (second compound 0.1 µM, first compound 0.0949 µM); 22.4% (second compound 0.1 µM, first compound 0.3 µM); 16.1% (second compound 0.1 µM, first compound 0.949 µM); 11% (second compound 0.1 µM, first compound 3 µM). For the same molecule, the viability, T/C is, setting by setting: (second compound 0.316 µM, first compound 0.00949 µM) 117%; (second compound 0.316 µM, first compound 0.03 µM) 71.1%; (second compound 0.316 µM, first compound 0.0949 µM) 38.3%; (second compound 0.316 µM, first compound 0.3 µM) 21.7%; (second compound 0.316 µM, first compound 0.949 µM) 17.4%; (second compound 0.316 µM, first compound 3 µM) 12.3%. For the same molecule, the viability, T/C (second compound 1 µM, first compound 0.00949 µM) was 111%; the viability, T/C (second compound 1 µM, first compound 0.03 µM) is 62.5%; the viability, T/C (second compound 1 µM, first compound 0.0949 µM) is 37.6%; the viability, T/C (second compound 1 µM, first compound 0.3 µM) is 21.2%; the viability, T/C (second compound 1 µM, first compound 0.949 µM) was 16.7%; the viability, T/C (second compound 1 µM, first compound 3 µM) is 11.5%. Also, the viability, T/C runs as follows: (second compound 3.16 µM, first compound 0.00949 µM) 120%; (second compound 3.16 µM, first compound 0.03 µM) 63.6%; (second compound 3.16 µM, first compound 0.0949 µM) 38.1%; (second compound 3.16 µM, first compound 0.3 µM) 21.3%; (second compound 3.16 µM, first compound 0.949 µM) 17.7%; (second compound 3.16 µM, first compound 3 µM) 14.1%. Also, the viability, T/C was 83.7% (second compound 10 µM, first compound 0.00949 µM); 54.5% (second compound 10 µM, first compound 0.03 µM); 37.5% (second compound 10 µM, first compound 0.0949 µM); 23.9% (second compound 10 µM, first compound 0.3 µM); 21% (second compound 10 µM, first compound 0.949 µM); 16% (second compound 10 µM, first compound 3 µM).
As to `CC(C)CC(NC(=O)CNC(=O)c1cc(Cl)ccc1Cl)B1OC(=O)CC(CC(=O)O)(C(=O)O)O1` (stereo not given), the viability, T/C (compound 0.000316 µM) was 107% and 105%; the viability, T/C (compound 0.001 µM) was 106%; the viability, T/C (compound 0.00316 µM) was 82.2% and 97.3%; the viability, T/C (compound 0.01 µM) is 7.33% and 16.1%; the viability, T/C (compound 0.0316 µM) is 0.46% and 1.77%; the viability, T/C (compound 0.1 µM) was 0.41% and 0.54%. Also, the negative logarithm of the IC50 (pIC50) (curve of compound) is 8.28 and 8.21.
As for `O=C(C=Cn1cnc(-c2cc(C(F)(F)F)cc(C(F)(F)F)c2)n1)NNc1cnccn1`, the viability, T/C (compound 0.00316 µM) is 44% and 57%; the viability, T/C (compound 0.01 µM) is 36.4% and 61.1%; the viability, T/C (compound 0.0316 µM) is 40.2% and 68%; the viability, T/C (compound 0.1 µM) is 31.9% and 73.8%; the viability, T/C (compound 0.316 µM) was 15.7% and 36.3%; the viability, T/C (compound 1 µM) is 11.8% and 16.6%.
Turning to `CC[C@@]1(O)C(=O)OCc2c1cc1n(c2=O)Cc2cc3c(CN(C)C)c(O)ccc3nc2-1` + NC1CC1c1ccc(-c2cccc(O)c2)cc1, the pIC50 by setting is: under setting [1], 8.22; under setting [2], 8.18; under setting [3], 8.21; under setting [4], 8.21; under setting [5], 8.20. For the same molecule, the viability, T/C (second compound 0.1 µM, first compound 0.000316 µM) was 97.3%; the viability, T/C (second compound 0.1 µM, first compound 0.001 µM) was 106%; the viability, T/C (second compound 0.1 µM, first compound 0.00316 µM) is 77.3%; the viability, T/C (second compound 0.1 µM, first compound 0.01 µM) was 28.3%; the viability, T/C under setting [6] was 15.6%; the viability, T/C under setting [7] is 11.7%. The viability, T/C is 94.8% (second compound 0.316 µM, first compound 0.000316 µM); 94.9% (second compound 0.316 µM, first compound 0.001 µM); 80.5% (second compound 0.316 µM, first compound 0.00316 µM); 33.1% (second compound 0.316 µM, first compound 0.01 µM); 14.6% under setting [8]; 13.1% under setting [9]. The viability, T/C (second compound 1 µM, first compound 0.000316 µM) is 80.2%; the viability, T/C (second compound 1 µM, first compound 0.001 µM) is 93.3%; the viability, T/C (second compound 1 µM, first compound 0.00316 µM) is 78.2%; the viability, T/C (second compound 1 µM, first compound 0.01 µM) is 29.1%; the viability, T/C under setting [10] was 16.4%; the viability, T/C under setting [11] is 12.7%. In addition, the viability, T/C reads like this: (second compound 3.16 µM, first compound 0.000316 µM) 83%; (second compound 3.16 µM, first compound 0.001 µM) 86.8%; (second compound 3.16 µM, first compound 0.00316 µM) 71.9%; (second compound 3.16 µM, first compound 0.01 µM) 33.8%; under setting [12], 18.5%; under setting [13], 12.2%. In addition, the viability, T/C by setting is: (second compound 10 µM, first compound 0.000316 µM) 103%; (second compound 10 µM, first compound 0.001 µM) 92.3%; (second compound 10 µM, first compound 0.00316 µM) 68.7%; (second compound 10 µM, first compound 0.01 µM) 37.7%; under setting [14], 21.1%; under setting [15], 19.7%.
As for `Nc1ccn(C2OC(CO)C(O)C2(F)F)c(=O)n1` (stereo not given), the viability, T/C is, setting by setting: (compound 0.000949 µM) 106% and 95.4%; (compound 0.003 µM) 112% and 89%; (compound 0.00949 µM) 97.3% and 98.3%; (compound 0.03 µM) 73.4% and 89.6%; (compound 0.0949 µM) 43% and 50.5%; (compound 0.3 µM) 12% and 17.5%. The pIC50 (curve of compound) was 7.15 and 7.02.

The values are drawn from PubChem BioAssay AID1918937 (Molecular Pharmacology Branch, DTP, NCI, 2023).
